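Results reflect a 48-hour exposure of cells in 96-well plates to compound at five concentrations. Abbreviation: GI50, concentration required for 50% inhibition of growth.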 Activity calls are given as the source filed them. No stated cut-off is given here; in the data, active = GI50 up to about 1.1 µM and inactive = higher.
Tests used:
Assay in all cases: NCI tumour cell line growth inhibition, 48 h
KM12 = tested on: KM12
MDA-MB-435 = tested on: MDA-MB-435
T47D = tested on: T47D
MDA-MB-231 = tested on: MDA-MB-231
A498 = tested on: A498
CCRF-CEM = tested on: CCRF-CEM
HCT-116 = tested on: HCT-116
UACC-257 = tested on: UACC-257
OVCAR-8 = tested on: OVCAR-8
SF-268 = tested on: SF-268
NCI-H23 = tested on: NCI-H23
HCT-15 = tested on: HCT-15
SNB-19 = tested on: SNB-19
HCC 2998 = tested on: HCC 2998
OVCAR-4 = tested on: OVCAR-4
BT-549 = tested on: BT-549
NCI-H226 = tested on: NCI-H226
HOP-92 = tested on: HOP-92
MDA-N = tested on: MDA-N
LOX IMVI = tested on: LOX IMVI
COLO 205 = tested on: COLO 205
SK-MEL-2 = tested on: SK-MEL-2
Hs-578T = tested on: Hs-578T
UACC-62 = tested on: UACC-62
SW-620 = tested on: SW-620
A549 = tested on: A549
U-251 = tested on: U-251
SR = tested on: SR
CAKI-1 = tested on: CAKI-1
SN12C = tested on: SN12C
ACHN = tested on: ACHN
HL-60 = tested on: HL-60
UO-31 = tested on: UO-31
SK-MEL-28 = tested on: SK-MEL-28
NCI/ADR-RES = tested on: NCI/ADR-RES
786-0 = tested on: 786-0
TK-10 = tested on: TK-10
PC-3 = tested on: PC-3
DU-145 = tested on: DU-145
NCI-H522 = tested on: NCI-H522
NCI-H460 = tested on: NCI-H460
SK-MEL-5 = tested on: SK-MEL-5
SNB-75 = tested on: SNB-75
HT-29 = tested on: HT-29

Measured: GI50

C[C@@H](c1ccccc1)n1c(N)c(-c2ccccn2)c2ccc([N+](=O)[O-])cc2c1=O
86.1 µM: HCT-15
inactive: KM12 67.9 µM | MDA-MB-435 92.7 µM | T47D 43.2 µM | MDA-MB-231 86.3 µM | A498 18.5 µM | CCRF-CEM 32.1 µM | HCT-116 79.4 µM | UACC-257 22.2 µM | OVCAR-8 51.2 µM | SF-268 > 100 µM | NCI-H23 54.6 µM | SNB-19 35.2 µM | HCC 2998 > 100 µM | OVCAR-4 80.2 µM | BT-549 44.1 µM | NCI-H226 36.6 µM | HOP-92 33.3 µM | MDA-N 88.7 µM | LOX IMVI > 100 µM | COLO 205 38.2 µM | SK-MEL-2 > 100 µM | Hs-578T 26.9 µM | UACC-62 > 100 µM | SW-620 > 100 µM | A549 34.9 µM | U-251 47.5 µM | SR 32.6 µM | CAKI-1 51.8 µM | SN12C 98.2 µM | ACHN 56.9 µM | HL-60 52.4 µM | UO-31 14.5 µM | SK-MEL-28 > 100 µM | NCI/ADR-RES 26.9 µM | 786-0 > 100 µM | TK-10 31.2 µM | PC-3 17.5 µM | DU-145 31.8 µM | NCI-H522 48.2 µM | NCI-H460 43.1 µM | SK-MEL-5 25.7 µM | SNB-75 12.8 µM | HT-29 > 100 µM
